The source of these data is US20140303123A1, “SYNTHESIZING FUNCTIONALIZED DENDRIMERS WITHIN BIOLOGICAL SETTINGS” (priority 2011, published 2014).

Test [1] relates to FRα over-expressing KB cells. As to the kind of experiment: Uptake of dendrimer conjugates in KB cells, in situ CuAAC detection with fluorescent azide, flow cytometry. It is filed as cell-based. The settings on record: increasing concentrations, 1 hour at 37° C., Alexa647-azide detection (FIG. 2A). A general note: A flow cytometer gives signals particle by particle.
Protocol: KB cells were cultured in RPMI 1640 medium without folic acid for at least 4 days before experiments, resulting in the folic acid receptor overexpressing KB (FAR-KB) cell line. […] For the flow cytometry measurements, cells were seeded on a 12-well plate for tissue culture at a concentration of 23105 cells/well and grown in folic acid deficient RPMI 1640 media (Mediatech, Herndon, Va.) at 37° C., 5% CO2 for 24 hr. The cells were then incubated with the series of the prepared nanodevices at either 37° C. for 1 hr. After removal of supernatants, cells were trypsinized and collected into FACS tubes, followed by centrifugation at 1500 rpm for 5 min to obtain cell pellets. […] Fluorescence signal intensities from the samples were measured using a Coulter EPICS/XL MCL Beckman-Coulter flow cytometer, and data were analyzed using FloJo 8.2 software (TreeStar).
After 4% paraformaldehyde fixation and permeabilization with 10% saponin in PBS and BSA, cells were rinsed and then stained by incubating cells for 30 min with 100 mM Tris (pH 8.5), 1 mM CuSO4, 1-100 μM fluorescent azide (in DMSO), and 100 mM ascorbic acid (added last to the mix in 0.5 M stock in water). […] After staining, cells were washed with 10% saponin solution and assessed by flow cytometry.
Test [2] concerns CD11b+ macrophages (peritoneal macrophages, lymph nodes). As to the kind of experiment: In vivo trafficking of FA-targeted dendrimer nanoparticles in a murine model of inflammation (thioglycollate IP). The settings on record: thioglycollate-stimulated mice, 35 mg/kg IP on day 3, cells isolated day 4 (FIG. 6); for uptake in peritoneal macrophages (PEM): 35 mg/kg. Here is the method:
Mice (n=2) were stimulated with thioglycollate IP. 3 days following thioglycollate, mice were administered 200 μl (35 mg/kg) folate functionalized dendrimer alkyne scaffolds. One day later (day 4), peritoneal macrophages (PEM), spleen, cervical lymph nodes, and mesenteric lymph nodes were isolated and processed into single-cell suspensions. Suspensions were stained with a CD11b monoclonal PE antibody and then fixed and permeabilized. Cell suspensions were then reacted with AlexaFluor 647-azide to detect dendrimer conjugates and analyzed by flow cytometry.
On day 1, mice (n=2) were treated IP with thioglycollate to stimulate folate receptor positive macrophage infiltration into the peritoneal cavity (see, e.g., Xia, W. et al. Blood 113, 438-446 (2005); herein incorporated by reference in its entirety). On day 3, mice were administered folate targeted dendrimers IP (35 mg/kg). On day 4, peritoneal macrophages (PEM) as well as the spleen, submandibular lymph nodes, and mesenteric lymph nodes were isolated and processed as using standard techniques. Single cell suspensions were made and analyzed by flow cytometry for co-expression of the macrophage marker CD11b and the FA-dendrimer scaffolds. […] Compared to the cervical lymph nodes (secondary lymph organs not draining the peritoneal cavity), there was a greater proportion of double-positive CD11b and FR cells in the mesenteric lymph nodes consistent with the trafficking of these activated macrophages.

Test [3] deals with bone marrow derived macrophages (BMDM). The settings on record: BMDMs differentiated with IL-4 and IL-10, 30 nM, 6 hours at 37° C. (FIG. 4).
Protocol: Bone marrow derived macrophages (BMDM) were obtained as previously described. Briefly, bone marrow precursors from female C57BL/6 mice were isolated and propagated for 7 days in RPMI 1640 supplemented with penicillin (100 units/ml), streptomycin (100 mg/ml), and 10% heat inactivated low endotoxin fetal bovine serum with L-conditioned media. Following propagation, BMDMs were polarized with murine recombinant proteins M-CSF (10 ng/ml), IL4 (50 ng/ml), IL10 (10 ng/ml), or GM-CSF (10 ng/ml) for 72 hours (Peprotech). For the flow cytometry measurements, cells were seeded on a 12-well plate for tissue culture at a concentration of 23105 cells/well and grown in folic acid deficient RPMI 1640 media (Mediatech, Herndon, Va.) at 37° C., 5% CO2 for 24 hr. […] Fluorescence signal intensities from the samples were measured using a Coulter EPICS/XL MCL Beckman-Coulter flow cytometer, and data were analyzed using FloJo 8.2 software (TreeStar).
After 4% paraformaldehyde fixation and permeabilization with 10% saponin in PBS and BSA, cells were rinsed and then stained by incubating cells for 30 min with 100 mM Tris (pH 8.5), 1 mM CuSO4, 1-100 μM fluorescent azide (in DMSO), and 100 mM ascorbic acid (added last to the mix in 0.5 M stock in water). […] After staining, cells were washed with 10% saponin solution and assessed by flow cytometry. […]
The subject of a further test is folate receptor. The settings on record: relative to folic acid; cited from earlier work.

For the compound “G5-NHAc80-Alkyne12-Gly [non-targeted dendrimer conjugates]”, the cellular uptake entry in test [1] was “did not demonstrate any significant uptake”.
In the case of “G5-NHAc80-Alkyne8-FA4-Gly [FA-dendrimer alkyne conjugates]”, in test [1], the cellular uptake entry was “dose-dependent cellular uptake”. The “uptake in CD11b+ cells in the mesenteric lymph nodes” value in test [2] is recorded as “significant uptake”. The “uptake in peritoneal macrophages (PEM)” value is reported as “much higher uptake” in test [2] (listed as FA-dendrimer nanoparticles) and “significant uptake” in test [2] (listed as folate nanodevices).
Regarding “G5-NHAc80-Alkyne12-Mannose15-Gly [mannose-targeted dendrimers]”, in test [3], the “binding and uptake compared to non-targeted controls” value was “increased binding and uptake”.
Take `CN(Cc1cnc2nc(N)nc(N)c2n1)c1ccc(C(=O)N[C@@H](CCC(=O)O)C(=O)O)cc1` [methotrexate]: in the test on folate receptor, the “affinity for the folate receptor in comparison to folic acid (lower)” value is 100 fold.
